We go through 38 molecules from US20110184188A1, “Insecticidal Benzenedicarboxamide Derivative” (priority 2008, published 2011).

A short description of the first data set: logP(acid) by reverse phase (C18) chromatography at pH 2.3. The data set is classed as physicochemical. Conditions: pH 2.3; reverse phase (C18) chromatography, pH2.3, 0.1% phosphoric acid / acetonitrile gradient 10-95%; read-out: logP (acid).
For `Cc1nc(Cn2cnc(C(F)(F)C(F)(F)C(F)(F)F)n2)ccc1N` [SYNTHESIS EXAMPLE 84-2], the chromatographic logP came out at 1.52.

The same data set, now with this note: reverse phase (C18) chromatography at pH 2.3.
`Cc1nc(Cn2nc(C(F)(F)F)cc2C(F)(F)F)ccc1NC(=O)c1c(Br)ccc(Cl)c1C(=O)N[C@@H](C)CS(C)(=O)=O` [11-15]: the “logP (acid)” value is “logP (acid) 3.05”.

With `Cc1cc(Cn2nc(C(F)(F)C(F)(F)F)nc2C(F)(F)F)ccc1NC(=O)c1cc(F)cc(Cl)c1C(=O)N[C@@H](C)CS(C)(=O)=O` [10-15], the “logP (acid)” value is “logP (acid) 3.37”.

In the case of `CSC[C@H](C)NC(=O)c1c(Cl)cc(Cl)cc1C(=O)Nc1ccc(Cn2nc(C(F)(F)F)cc2C(F)(F)F)nc1C` [10-1], the “logP (acid)” value is “logP (acid) 4.18”.

On to `Cc1cc(Cn2nc(C(F)(F)C(F)(F)F)nc2C(F)(F)F)ccc1NC(=O)c1cc(Cl)cc(Cl)c1C(=O)N[C@@H](C)C[S+](C)[O-]` (some centres unmarked) [10-11], for which the “logP (acid)” value is given as “logP (acid) 3.28”.

For the molecule `CSC[C@H](C)NC(=O)c1c(Cl)ccc(Cl)c1C(=O)Nc1ccc(Cn2nc(C(F)(F)F)cc2C(F)(F)F)cc1C` [11-21], the “logP (acid)” value is given as “logP (acid) 3.88”.

For `CSC[C@H](C)NC(=O)c1c(Cl)cccc1C(=O)Nc1cnc(Cn2nc(C(F)(F)F)cc2C(F)(F)F)cc1C` [13-175], the “logP (acid)” value is “logP (acid) 3.52”.

On to `Cc1nc(Cn2cc(C(F)(F)C(F)(F)F)c(C(F)(F)C(F)(F)F)n2)ccc1NC(=O)c1cccc(Br)c1C(=O)N[C@@H](C)CS(C)(=O)=O` [13-141], for which the “logP (acid)” value is “logP (acid) 3.52”.

With `CSCC(C)NC(=O)c1c(Cl)ccc(Cl)c1C(=O)Nc1ccc(Cn2nc(C(F)(F)F)cc2C(F)(F)F)nc1C` (centres unmarked) [11-4], the “logP (acid)” value was “logP (acid) 4.14”.

`CSC[C@H](C)NC(=O)c1c(I)cccc1C(=O)Nc1ccc(Cn2nc(C(F)(F)C(F)(F)F)cc2C(F)(F)F)nc1C` [13-157]: the “logP (acid)” value was “logP (acid) 4.39”.

For the molecule `CSC[C@H](C)NC(=O)c1c(Cl)cccc1C(=O)Nc1ccc(Cn2cc(C(F)(F)C(F)(F)F)c(C(F)(F)C(F)(F)F)n2)nc1C` [13-50], the “logP (acid)” value is listed as 4.27.

As for `CSC[C@H](C)NC(=O)c1c(Br)cccc1C(=O)Nc1ccc(Cn2nc(C(F)(F)C(F)(F)F)cc2C(F)(F)F)nc1C` [13-135], the “logP (acid)” value is “logP (acid) 4.30”.

`Cc1nc(Cn2nc(C(F)(F)C(F)(F)F)cc2C(F)(F)F)ccc1NC(=O)c1cccc(Br)c1C(=O)NC(C)C[S+](C)[O-]` (mixture of isomers) [13-188]: the “logP (acid)” value is “logP (acid) 2.81”.

The same data set, now with this note: reverse phase (C18) chromatography at pH2.3, 0.1% phosphoric acid aqueous solution / acetonitrile, linear gradient 10-95%.
Regarding `CSC[C@H](C)NC(=O)c1c(Cl)cccc1C(=O)Nc1cccc(Cn2nc(C(F)(F)C(F)(F)F)nc2-c2ccc(C(F)(F)F)cc2)c1C` [4-10], the “logP (acid)” value is recorded as “logP (acid) 4.44”.

The same data set, now with this note: reverse phase (C18) chromatography at pH2.3, 0.1% phosphoric acid aqueous solution / acetonitrile, linear gradient 10-95% acetonitrile.
As for `CSC[C@H](C)NC(=O)c1c(SC)cccc1C(=O)Nc1cc(F)c(Cn2nc(C(F)(F)F)nc2C(F)(F)F)cc1C` [7-23], the “logP (acid)” value is on record as “logP (acid) 3.96”.

Turning to `Cc1cc(Cn2nc(C(F)(F)F)nc2C(F)(F)F)c(F)cc1NC(=O)c1cccc(Br)c1C(=O)N[C@@H](C)CS(C)(=O)=O` [7-15], the “logP (acid)” value was “logP (acid) 3.08”.

The same data set, now with this note: reverse phase (C18) chromatography, pH 2.3.
In the case of `CSC[C@H](C)NC(=O)c1c(Cl)cccc1C(=O)Nc1ccc(Nc2c(C(F)(F)F)c(C(F)(F)C(F)(F)F)nn2C)nc1C` [13-226], the “logP (acid)” value is “logP (acid) 3.64”.

As for `CSC[C@H](C)NC(=O)c1c(Cl)cccc1C(=O)Nc1ccc(Cn2cc(C(=O)N(C)C)c(C(F)(F)F)n2)cc1C` [13-207], the “logP (acid)” value is given as “logP (acid) 2.56”.

Turning to `CSC[C@H](C)NC(=O)c1c(SC)cccc1C(=O)Nc1ccc(Cn2nc(C(F)(F)C(F)F)nc2C(F)(F)F)nc1C` [14-397], the “logP (acid)” value is “logP (acid) 3.49”.

Regarding `CSC[C@H](C)NC(=O)c1c(Cl)cccc1C(=O)Nc1ccc(Cn2nc(C(F)(F)C(F)(F)F)cc2C(=O)C(F)(F)F)cc1C` [13-220], the “logP (acid)” value is reported as “logP (acid) 3.52”.

For the molecule `Cc1nc(N(C)c2c(C(F)(F)F)c(C(F)(F)C(F)(F)F)nn2C)ccc1NC(=O)c1cccc(Cl)c1C(=O)N[C@@H](C)C[S+](C)[O-]` (some centres unmarked) [13-354], the “logP (acid)” value is reported as “logP (acid) 2.91”.

`CSC[C@H](C)NC(=O)c1c(SC)cccc1C(=O)Nc1ccc(Cn2nc(C(F)(F)C(F)(F)F)nc2C(F)(F)C(F)(F)F)nc1C` [14-387]: the “logP (acid)” value is given as “logP (acid) 4.33”.

Consider `CSC[C@H](C)NC(=O)c1c(Cl)cccc1C(=O)Nc1ccc(C(=O)c2cc(C(F)(F)C(F)(F)F)n[nH]2)cc1C` [13-229], for which the “logP (acid)” value was “logP (acid) 3.4”.

Consider `Cc1cc(Cn2nc(C(F)(F)C(F)(F)F)n(C(F)F)c2=O)ccc1NC(=O)c1cccc(Cl)c1C(=O)N[C@@H](C)C[S+](C)[O-]` (some centres unmarked) [14-329], for which the “logP (acid)” value is “logP (acid) 2.5”.

Regarding `CSC[C@H](C)NC(=O)c1c(Cl)cccc1C(=O)Nc1ccc(Cn2cc(C(=O)Nc3cc(C(F)(F)F)cc(C(F)(F)F)c3)c(C(F)(F)F)n2)cc1C` [13-211], the “logP (acid)” value is “logP (acid) 4.55”.

Take `CSC[C@H](C)NC(=O)c1c(C(=O)Nc2ccc(Cn3nc(C(F)(F)F)cc3C(F)(F)F)nc2C)cccc1S(C)(=O)=O` [13-286]: the “logP (acid)” value is “logP (acid) 3.21”.

Turning to `CSC[C@H](C)NC(=O)c1c(Cl)cccc1C(=O)Nc1ccc(Nc2c(SC(F)(F)F)c(C(F)(F)F)nn2-c2c(Cl)cc(C(F)(F)F)cc2Cl)nc1C` [13-227], the “logP (acid)” value is “logP (acid) 5.09”.

Turning to `CSC[C@H](C)NC(=O)c1c(Cl)cccc1C(=O)Nc1ccc(Cn2nnc(C(F)(F)C(F)(F)C(F)(F)F)n2)nc1C` [14-307], the “logP (acid)” value was “logP (acid) 3.71”.

Turning to `CSC[C@H](C)NC(=O)c1c(I)cccc1C(=O)Nc1ccc(Cn2nc(C(F)(F)C(F)(F)F)n(C(F)F)c2=O)cc1C` [14-334], the “logP (acid)” value is listed as “logP (acid) 3.11”.

On to `CSC[C@H](C)NC(=O)c1c(Cl)cccc1C(=O)Nc1ccc(Cn2nc(C(F)(F)F)cc2N)cc1C` [13-200], for which the “logP (acid)” value is “logP (acid) 2.31”.

For `CSC[C@H](C)NC(=O)c1c(Cl)cccc1C(=O)Nc1cnc(Cn2nc(C(F)(F)F)nc2C(F)(F)F)cc1C` [14-268], the “logP (acid)” value was “logP (acid) 3.26”.

Turning to `CSC[C@H](C)NC(=O)c1c(Cl)cccc1C(=O)Nc1ccc(N(C)c2c(C(F)(F)F)c(C(F)(F)C(F)(F)F)nn2C)nc1C` [13-353], the “logP (acid)” value is “logP (acid) 4.19”.

Take `CSC[C@H](C)NC(=O)c1c(SC)cccc1C(=O)Nc1ccc(Cn2nc(C(F)(F)C(F)(F)F)cc2C(F)(F)F)cc1C` [13-310]: the “logP (acid)” value was “logP (acid) 4.74”.

Regarding `Cc1cc(Cn2nc(C(F)(F)C(F)(F)F)nc2C(F)(F)F)ccc1NC(=O)c1cccc(S(=O)(=O)N(C)C)c1C(=O)N[C@@H](C)CS(C)(=O)=O` [14-395], the “logP (acid)” value is “logP (acid) 3.13”.

With `Cc1nc(Cn2nc(C(F)(F)C(F)(F)F)nc2C(F)(F)F)ccc1NC(=O)c1cccc(S(C)(=O)=O)c1C(=O)N[C@@H](C)CS(C)(=O)=O` [14-396], the “logP (acid)” value was “logP (acid) 2.76”.

In the case of `Cc1cc(Cn2nc(C(F)(F)C(F)(F)F)n(N)c2=O)ccc1NC(=O)c1cccc(Cl)c1C(=O)N[C@@H](C)CS(C)(=O)=O` [14-423], the “logP (acid)” value is recorded as “logP (acid) 2.13”.

Take `Cc1cc(Cn2nc(C(F)(F)F)cc2C(F)(F)F)ccc1NC(=O)c1cccc(Cl)c1C(=O)NC(C)CN(C)C` (centres unmarked) [13-191]: the “logP (acid)” value is “logP (acid) 1.81”.

On to `CC(=O)CC(C)NC(=O)c1c(Cl)cccc1C(=O)Nc1ccc(Cn2nc(C(F)(F)C(F)(F)F)nc2C(F)(F)F)cc1C` (centres unmarked) [14-295], for which the “logP (acid)” value is “logP (acid) 3.56”.
